Assay results: PMC9133015 (Nature Communications, 2022)
“And” between values parts separate entries of the source, which are not always exact repeats. Equal values may be shown once.

Tests used:
Test in all cases: Kinase inhibitor specificity profiling (Reaction Biology Corporation)
Type in all cases: biochemical
Set-up in all cases: % Enzyme Activity (relative to DMSO controls): concentration or dose not given beside the values
[1] = molecular target: T1, panel of 370 protein kinases (Homo sapiens, UniProt Q9UM73); conditions: 2 h, kinase ALK; read-out: % Enzyme Activity (relative to DMSO controls)
T1 construct: purchased Reaction Biology Corporation (assay service)

[2] = molecular target: T2, panel of 370 protein kinases (Homo sapiens, UniProt Q9UQB9); conditions: 2 h, kinase AURORA C; read-out: % Enzyme Activity (relative to DMSO controls)
T2 construct: purchased Reaction Biology Corporation (assay service)

[3] = molecular target: T3, panel of 370 protein kinases (Homo sapiens, UniProt Q9HBY8); conditions: 2 h, kinase SGK2; read-out: % Enzyme Activity (relative to DMSO controls)
T3 construct: purchased Reaction Biology Corporation (assay service)
T3 sequence (Q9HBY8 whole entry): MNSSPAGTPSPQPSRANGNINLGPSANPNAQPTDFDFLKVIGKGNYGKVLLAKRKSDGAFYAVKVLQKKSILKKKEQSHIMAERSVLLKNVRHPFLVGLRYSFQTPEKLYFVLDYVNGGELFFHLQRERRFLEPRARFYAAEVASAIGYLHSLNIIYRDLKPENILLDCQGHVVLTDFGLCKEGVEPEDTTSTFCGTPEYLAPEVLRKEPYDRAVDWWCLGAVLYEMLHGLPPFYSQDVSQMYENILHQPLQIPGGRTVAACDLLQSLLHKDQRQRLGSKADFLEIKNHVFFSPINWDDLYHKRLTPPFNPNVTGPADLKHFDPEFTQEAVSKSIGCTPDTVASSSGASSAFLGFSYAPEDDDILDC

[4] = molecular target: T4, panel of 370 protein kinases (Homo sapiens, UniProt P54764); conditions: 2 h, kinase EPHA4; read-out: % Enzyme Activity (relative to DMSO controls)
T4 construct: purchased Reaction Biology Corporation (assay service)
T4 sequence (P54764 20-986): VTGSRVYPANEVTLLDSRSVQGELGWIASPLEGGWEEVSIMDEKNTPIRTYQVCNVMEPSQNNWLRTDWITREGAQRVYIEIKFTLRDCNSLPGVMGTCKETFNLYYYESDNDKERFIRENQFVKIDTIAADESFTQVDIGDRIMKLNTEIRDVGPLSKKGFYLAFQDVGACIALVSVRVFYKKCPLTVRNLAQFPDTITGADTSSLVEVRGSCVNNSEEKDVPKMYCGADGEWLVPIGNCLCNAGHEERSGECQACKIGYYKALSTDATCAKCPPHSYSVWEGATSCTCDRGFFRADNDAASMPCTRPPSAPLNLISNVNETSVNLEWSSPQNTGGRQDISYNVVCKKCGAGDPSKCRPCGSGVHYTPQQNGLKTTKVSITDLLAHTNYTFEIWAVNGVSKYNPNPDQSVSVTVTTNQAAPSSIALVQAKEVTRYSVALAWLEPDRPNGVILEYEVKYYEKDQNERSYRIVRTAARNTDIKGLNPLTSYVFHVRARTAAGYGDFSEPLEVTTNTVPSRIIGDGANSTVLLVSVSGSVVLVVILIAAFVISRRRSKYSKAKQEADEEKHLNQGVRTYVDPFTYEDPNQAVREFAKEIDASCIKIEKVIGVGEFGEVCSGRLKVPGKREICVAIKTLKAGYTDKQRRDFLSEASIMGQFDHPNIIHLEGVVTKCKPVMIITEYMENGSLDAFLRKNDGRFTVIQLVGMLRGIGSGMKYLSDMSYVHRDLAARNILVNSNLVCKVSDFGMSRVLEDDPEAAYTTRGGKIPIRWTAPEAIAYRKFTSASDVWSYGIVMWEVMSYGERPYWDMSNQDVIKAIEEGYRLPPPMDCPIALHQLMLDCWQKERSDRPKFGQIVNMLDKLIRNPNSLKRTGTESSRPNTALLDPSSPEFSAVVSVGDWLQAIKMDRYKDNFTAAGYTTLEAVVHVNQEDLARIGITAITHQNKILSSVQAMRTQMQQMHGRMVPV

[5] = molecular target: T5, panel of 370 protein kinases (Homo sapiens, UniProt P52564); conditions: 2 h, kinase MKK6; read-out: % Enzyme Activity (relative to DMSO controls)
T5 construct: purchased Reaction Biology Corporation (assay service)

[6] = molecular target: T6, panel of 370 protein kinases (Homo sapiens, UniProt O94921); conditions: kinase CDK14/cyclin Y (PFTK1)
T6 construct: purchased Reaction Biology Corporation (assay service)
T6 sequence (O94921 whole entry): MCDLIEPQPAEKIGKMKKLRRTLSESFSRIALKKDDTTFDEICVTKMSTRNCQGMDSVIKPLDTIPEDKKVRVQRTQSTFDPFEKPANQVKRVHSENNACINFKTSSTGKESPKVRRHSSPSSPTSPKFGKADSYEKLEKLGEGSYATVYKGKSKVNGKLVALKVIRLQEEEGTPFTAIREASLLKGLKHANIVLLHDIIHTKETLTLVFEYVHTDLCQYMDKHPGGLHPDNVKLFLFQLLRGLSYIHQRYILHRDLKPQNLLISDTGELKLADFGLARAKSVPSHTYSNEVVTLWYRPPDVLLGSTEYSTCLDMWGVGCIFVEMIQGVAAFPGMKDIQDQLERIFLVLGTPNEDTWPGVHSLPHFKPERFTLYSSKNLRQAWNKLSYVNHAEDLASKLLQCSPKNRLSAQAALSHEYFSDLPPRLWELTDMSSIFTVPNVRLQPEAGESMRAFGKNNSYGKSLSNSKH

[7] = molecular target: T7, panel of 370 protein kinases (Homo sapiens, UniProt P08069); conditions: 2 h, kinase IGF1R; read-out: % Enzyme Activity (relative to DMSO controls)
T7 construct: purchased Reaction Biology Corporation (assay service)

[8] = molecular target: T8, panel of 370 protein kinases (Homo sapiens, UniProt O94804); conditions: kinase LOK/STK10
T8 construct: purchased Reaction Biology Corporation (assay service)
T8 sequence (O94804 whole entry): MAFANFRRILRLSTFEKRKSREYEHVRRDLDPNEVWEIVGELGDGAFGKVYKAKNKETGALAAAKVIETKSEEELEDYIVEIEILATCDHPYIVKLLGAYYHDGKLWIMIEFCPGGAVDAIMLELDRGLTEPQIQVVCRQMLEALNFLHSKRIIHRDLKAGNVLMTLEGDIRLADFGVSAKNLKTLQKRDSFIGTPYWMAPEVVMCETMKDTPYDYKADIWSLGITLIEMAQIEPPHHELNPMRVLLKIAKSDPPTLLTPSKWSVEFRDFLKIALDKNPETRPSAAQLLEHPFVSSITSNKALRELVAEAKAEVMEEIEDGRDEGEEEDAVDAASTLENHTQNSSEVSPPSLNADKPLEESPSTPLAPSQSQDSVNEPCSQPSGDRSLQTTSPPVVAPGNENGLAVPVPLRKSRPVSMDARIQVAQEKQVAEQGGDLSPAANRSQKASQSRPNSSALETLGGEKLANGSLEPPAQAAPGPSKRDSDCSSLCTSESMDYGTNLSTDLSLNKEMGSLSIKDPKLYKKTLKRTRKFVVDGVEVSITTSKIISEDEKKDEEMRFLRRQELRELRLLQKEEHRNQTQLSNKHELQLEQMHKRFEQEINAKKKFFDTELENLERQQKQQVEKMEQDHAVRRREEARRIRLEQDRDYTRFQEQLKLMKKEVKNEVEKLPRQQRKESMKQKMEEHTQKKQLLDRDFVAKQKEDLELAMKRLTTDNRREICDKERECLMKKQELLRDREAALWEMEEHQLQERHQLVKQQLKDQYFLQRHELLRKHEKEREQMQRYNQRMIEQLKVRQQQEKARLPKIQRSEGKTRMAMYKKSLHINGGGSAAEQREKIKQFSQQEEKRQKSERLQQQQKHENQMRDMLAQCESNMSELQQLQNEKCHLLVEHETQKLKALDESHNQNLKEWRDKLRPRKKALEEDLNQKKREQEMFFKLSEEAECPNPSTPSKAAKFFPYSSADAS

[9] = molecular target: T9, panel of 370 protein kinases (Homo sapiens, UniProt O00506); conditions: 2 h, kinase STK25/YSK1; read-out: % Enzyme Activity (relative to DMSO controls)
T9 construct: purchased Reaction Biology Corporation (assay service)
T9 sequence (O00506 whole entry): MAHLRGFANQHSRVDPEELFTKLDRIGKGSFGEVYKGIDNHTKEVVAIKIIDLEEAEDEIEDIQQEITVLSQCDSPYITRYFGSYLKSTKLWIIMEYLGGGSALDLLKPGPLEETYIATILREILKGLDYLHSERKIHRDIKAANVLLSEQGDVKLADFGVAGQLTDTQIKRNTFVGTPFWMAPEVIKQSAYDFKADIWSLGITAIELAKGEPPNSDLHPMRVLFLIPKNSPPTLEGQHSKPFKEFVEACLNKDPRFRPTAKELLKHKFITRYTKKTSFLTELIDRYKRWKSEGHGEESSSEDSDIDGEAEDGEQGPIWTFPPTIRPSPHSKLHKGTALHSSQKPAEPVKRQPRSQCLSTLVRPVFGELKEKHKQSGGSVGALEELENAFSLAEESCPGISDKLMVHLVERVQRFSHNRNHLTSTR

[10] = molecular target: T10, panel of 370 protein kinases (Homo sapiens, UniProt Q13470); conditions: 2 h, kinase TNK1; read-out: % Enzyme Activity (relative to DMSO controls)
T10 construct: purchased Reaction Biology Corporation (assay service)

[11] = molecular target: T11, panel of 370 protein kinases (Homo sapiens, UniProt Q86Y07); conditions: 2 h, kinase VRK2; read-out: % Enzyme Activity (relative to DMSO controls)
T11 construct: purchased Reaction Biology Corporation (assay service)

[12] = molecular target: T12, panel of 370 protein kinases (Homo sapiens, UniProt O14965); conditions: 2 h, kinase Aurora A; read-out: % Enzyme Activity (relative to DMSO controls)
T12 construct: purchased Reaction Biology Corporation (assay service)

[13] = molecular target: T13, panel of 370 protein kinases (Homo sapiens, UniProt P29376); conditions: 2 h, kinase TYK1/LTK; read-out: % Enzyme Activity (relative to DMSO controls)
T13 construct: purchased Reaction Biology Corporation (assay service)

[14] = molecular target: T14, panel of 370 protein kinases (Homo sapiens, UniProt P49137); conditions: 2 h, kinase MAPKAPK2; read-out: % Enzyme Activity (relative to DMSO controls)
T14 construct: purchased Reaction Biology Corporation (assay service)

[15] = molecular target: T15, panel of 370 protein kinases (Homo sapiens, UniProt Q13557); conditions: 2 h, kinase CAMK2d; read-out: % Enzyme Activity (relative to DMSO controls)
T15 construct: purchased Reaction Biology Corporation (assay service)
T15 sequence (Q13557 whole entry): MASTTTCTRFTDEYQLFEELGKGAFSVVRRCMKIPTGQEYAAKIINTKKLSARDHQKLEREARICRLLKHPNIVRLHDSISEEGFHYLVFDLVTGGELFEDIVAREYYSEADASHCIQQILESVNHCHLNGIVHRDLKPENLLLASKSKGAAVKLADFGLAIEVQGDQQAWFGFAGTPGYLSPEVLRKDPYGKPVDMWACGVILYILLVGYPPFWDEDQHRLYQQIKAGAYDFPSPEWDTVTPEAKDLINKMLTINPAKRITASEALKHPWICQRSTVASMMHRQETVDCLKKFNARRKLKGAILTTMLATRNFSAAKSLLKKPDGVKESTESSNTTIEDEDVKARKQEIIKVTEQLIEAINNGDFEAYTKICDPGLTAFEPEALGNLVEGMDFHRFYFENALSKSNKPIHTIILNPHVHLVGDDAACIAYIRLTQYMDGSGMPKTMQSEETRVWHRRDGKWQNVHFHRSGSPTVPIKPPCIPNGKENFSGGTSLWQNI

[16] = molecular target: T16, panel of 370 protein kinases (Homo sapiens, UniProt P43250); conditions: 2 h, kinase GRK6; read-out: % Enzyme Activity (relative to DMSO controls)
T16 construct: purchased Reaction Biology Corporation (assay service)

[17] = molecular target: T17, panel of 370 protein kinases (Homo sapiens, UniProt Q8WTQ7); conditions: 2 h, kinase GRK7; read-out: % Enzyme Activity (relative to DMSO controls)
T17 construct: purchased Reaction Biology Corporation (assay service)

[18] = molecular target: T18, panel of 370 protein kinases (Homo sapiens, UniProt Q9NWZ3); conditions: kinase IRAK4
T18 construct: purchased Reaction Biology Corporation (assay service)
T18 sequence (Q9NWZ3 whole entry): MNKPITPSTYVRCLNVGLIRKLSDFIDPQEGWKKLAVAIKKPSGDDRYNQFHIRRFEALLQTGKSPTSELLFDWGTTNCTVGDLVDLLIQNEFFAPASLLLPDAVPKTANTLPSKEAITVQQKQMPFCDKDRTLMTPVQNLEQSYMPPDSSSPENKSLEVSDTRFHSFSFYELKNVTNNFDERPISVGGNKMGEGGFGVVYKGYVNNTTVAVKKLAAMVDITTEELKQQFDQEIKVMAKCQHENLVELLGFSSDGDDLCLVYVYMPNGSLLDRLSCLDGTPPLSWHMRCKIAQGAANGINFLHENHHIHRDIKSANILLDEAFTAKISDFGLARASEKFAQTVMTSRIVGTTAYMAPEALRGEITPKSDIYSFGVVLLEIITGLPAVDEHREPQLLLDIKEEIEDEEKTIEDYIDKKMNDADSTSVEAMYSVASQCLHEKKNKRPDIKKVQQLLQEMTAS

[19] = molecular target: T19, panel of 370 protein kinases (Homo sapiens, UniProt Q86Z02); conditions: 2 h, kinase HIPK1; read-out: % Enzyme Activity (relative to DMSO controls)
T19 construct: purchased Reaction Biology Corporation (assay service)

[20] = molecular target: T20, panel of 370 protein kinases (Homo sapiens, UniProt O94806); conditions: 2 h, kinase PKCnu/PRKD3; read-out: % Enzyme Activity (relative to DMSO controls)
T20 construct: purchased Reaction Biology Corporation (assay service)

[21] = molecular target: T21, panel of 370 protein kinases (Homo sapiens, UniProt P53667); conditions: 2 h, kinase LIMK1; read-out: % Enzyme Activity (relative to DMSO controls)
T21 construct: purchased Reaction Biology Corporation (assay service)
T21 sequence (P53667 whole entry): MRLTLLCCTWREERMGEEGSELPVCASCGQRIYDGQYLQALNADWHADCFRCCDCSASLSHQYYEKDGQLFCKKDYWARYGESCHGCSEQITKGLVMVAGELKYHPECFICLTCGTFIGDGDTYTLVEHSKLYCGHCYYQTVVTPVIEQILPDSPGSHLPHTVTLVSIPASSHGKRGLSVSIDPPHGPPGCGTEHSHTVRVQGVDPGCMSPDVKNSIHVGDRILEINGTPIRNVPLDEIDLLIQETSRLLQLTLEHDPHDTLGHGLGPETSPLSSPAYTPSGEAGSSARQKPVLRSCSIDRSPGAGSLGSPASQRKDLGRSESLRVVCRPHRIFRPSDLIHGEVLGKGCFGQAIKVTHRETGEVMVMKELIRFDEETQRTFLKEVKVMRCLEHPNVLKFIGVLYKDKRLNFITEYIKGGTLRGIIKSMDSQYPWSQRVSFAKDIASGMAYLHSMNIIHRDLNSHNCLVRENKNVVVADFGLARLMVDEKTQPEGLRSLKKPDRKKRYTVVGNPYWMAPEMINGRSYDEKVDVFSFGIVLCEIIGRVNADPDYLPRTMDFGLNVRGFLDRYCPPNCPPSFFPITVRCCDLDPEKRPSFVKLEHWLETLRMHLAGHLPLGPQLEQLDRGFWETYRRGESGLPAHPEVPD

CCN1CCN(C(=O)c2ccc(Nc3ncc(F)c(-c4ccc5nc(N(C)C)sc5c4)n3)nc2)CC1 [YK-2-69]
remaining activity at 1 µM [1]: 98.8%
remaining activity at 1 µM [2]: 94.7%
remaining activity at 1 µM [3]: 97.5%
remaining activity at 1 µM [4]: 70.2%
remaining activity at 1 µM [5]: 89.5%
% Enzyme Activity (relative to DMSO controls) [6]: 116.35% and 115.11%
remaining activity at 1 µM [7]: 102%
% Enzyme Activity (relative to DMSO controls) [8]: 97.88% and 97.48%
remaining activity at 1 µM [9]: 102%
remaining activity at 1 µM [10]: 95.3%
remaining activity at 1 µM [11]: 93.1%
remaining activity at 1 µM [12]: 80.6%
remaining activity at 1 µM [13]: 109%
remaining activity at 1 µM [14]: 83.2%
remaining activity at 1 µM [15]: 92.8%
remaining activity at 1 µM [16]: 114%
remaining activity at 1 µM [17]: 102%
% Enzyme Activity (relative to DMSO controls) [18]: 99.99% and 96.94%
remaining activity at 1 µM [19]: 106%
remaining activity at 1 µM [20]: 75.6%
remaining activity at 1 µM [21]: 95.7%
